Source: patent US20100267561A1, “HERBICIDAL PYRIDAZINONE DERIVATIVES” (priority 2007, published 2010)

Experiments:
Experiment in all cases: Test E pre-/postemergence plant response
Type in all cases: in vivo
[1] = system: Italian ryegrass (Lolium multiflorum); details: scale 0 to 100
Outline: (§1)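 Pre/post herbicide screen; formulation: non-phytotoxic solvent mix + surfactant. Post timing 1–4 leaves (2–18 cm ht). Greenhouse 14–21 d; visual 0 (none) to 100 (complete control) vs controls.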

[2] = system: surinam grass (Brachiaria decumbens); details: scale 0 to 100
Outline: as §1

[3] = system: annual bluegrass (Poa annua); details: scale 0 to 100
Outline: as §1

[4] = system: green foxtail (Setaria viridis); details: scale 0 to 100
Outline: as §1

[5] = system: large crabgrass (Digitaria sanguinalis); details: scale 0 to 100
Outline: as §1

[6] = system: naked crabgrass (Digitaria nuda); details: scale 0 to 100
Outline: as §1

[7] = system: common groundsel (Senecio vulgaris); details: scale 0 to 100
Outline: as §1

[8] = system: johnsongrass (Sorghum halepense); details: scale 0 to 100
Outline: as §1

[9] = system: common chickweed (Stellaria media); details: 16 g ai/ha, Preemergence, scale 0 to 100
Outline: as §1

[10] = system: dallisgrass (Paspalum dilatatum); details: scale 0 to 100
Outline: as §1

[11] = system: itchgrass (Rottboellia cochinchinensis); details: scale 0 to 100
Outline: as §1

[12] = system: goosegrass (Eleusine indica); details: scale 0 to 100
Outline: as §1

[13] = system: purple nutsedge (Cyperus rotundus); details: scale 0 to 100
Outline: as §1

[14] = system: guineagrass (Panicum maximum); details: scale 0 to 100
Outline: as §1

[15] = system: broadleaf signalgrass (Brachiaria platyphylla); details: scale 0 to 100
Outline: as §1

Cc1cc(-c2ccc(Cl)cc2)nn1-c1c(OC(=O)C(C)C)cnn(C)c1=O [Compound 34]
Plant response rating, Ryegrass, Italian ([1]; 16 g ai/ha, Preemergence): 80
Plant response rating, Ryegrass, Italian ([1]; 31 g ai/ha, Preemergence): 100
Plant response rating, Ryegrass, Italian ([1]; 62 g ai/ha, Preemergence): 100
Plant response rating, Ryegrass, Italian ([1]; Postemergence, 8 g ai/ha): 60
Plant response rating, Ryegrass, Italian ([1]; Postemergence, 16 g ai/ha): 95
Plant response rating, Ryegrass, Italian ([1]; Postemergence, 31 g ai/ha): 100
Plant response rating, Ryegrass, Italian ([1]; Postemergence, 62 g ai/ha): 100
Plant response rating, Surinam Grass ([2]; 16 g ai/ha, Preemergence): 98
Plant response rating, Surinam Grass ([2]; 31 g ai/ha, Preemergence): 100
Plant response rating, Surinam Grass ([2]; 62 g ai/ha, Preemergence): 100
Plant response rating, Surinam Grass ([2]; Postemergence, 8 g ai/ha): 90
Plant response rating, Surinam Grass ([2]; Postemergence, 16 g ai/ha): 98
Plant response rating, Surinam Grass ([2]; Postemergence, 31 g ai/ha): 100
Plant response rating, Surinam Grass ([2]; Postemergence, 62 g ai/ha): 100
Plant response rating, Bluegrass ([3]; 16 g ai/ha, Preemergence): 0
Plant response rating, Bluegrass ([3]; 31 g ai/ha, Preemergence): 0
Plant response rating, Bluegrass ([3]; 62 g ai/ha, Preemergence): 15
Plant response rating, Bluegrass ([3]; Postemergence, 8 g ai/ha): 0
Plant response rating, Bluegrass ([3]; Postemergence, 16 g ai/ha): 0
Plant response rating, Bluegrass ([3]; Postemergence, 31 g ai/ha): 0
Plant response rating, Bluegrass ([3]; Postemergence, 62 g ai/ha): 0
Plant response rating, Foxtail, Green ([4]; 16 g ai/ha, Preemergence): 65
Plant response rating, Foxtail, Green ([4]; 31 g ai/ha, Preemergence): 75
Plant response rating, Foxtail, Green ([4]; 62 g ai/ha, Preemergence): 100
Plant response rating, Foxtail, Green ([4]; Postemergence, 8 g ai/ha): 50
Plant response rating, Foxtail, Green ([4]; Postemergence, 16 g ai/ha): 75
Plant response rating, Foxtail, Green ([4]; Postemergence, 31 g ai/ha): 95
Plant response rating, Foxtail, Green ([4]; Postemergence, 62 g ai/ha): 98
Plant response rating, Crabgrass, Large ([5]; 31 g ai/ha, Preemergence): 50
Plant response rating, Crabgrass, Large ([5]; 62 g ai/ha, Preemergence): 100
Plant response rating, Crabgrass, Large ([5]; Postemergence, 8 g ai/ha): 60
Plant response rating, Crabgrass, Large ([5]; Postemergence, 16 g ai/ha): 75
Plant response rating, Crabgrass, Large ([5]; Postemergence, 31 g ai/ha): 100
Plant response rating, Crabgrass, Large ([5]; Postemergence, 62 g ai/ha): 100
Plant response rating, Crabgrass, Naked ([6]; 16 g ai/ha, Preemergence): 100
Plant response rating, Crabgrass, Naked ([6]; 31 g ai/ha, Preemergence): 100
Plant response rating, Crabgrass, Naked ([6]; 62 g ai/ha, Preemergence): 100
Plant response rating, Crabgrass, Naked ([6]; Postemergence, 8 g ai/ha): 40
Plant response rating, Crabgrass, Naked ([6]; Postemergence, 16 g ai/ha): 80
Plant response rating, Crabgrass, Naked ([6]; Postemergence, 62 g ai/ha): 100
Plant response rating, Groundsel ([7]; 16 g ai/ha, Preemergence): 0
Plant response rating, Groundsel ([7]; 31 g ai/ha, Preemergence): 0
Plant response rating, Groundsel ([7]; 62 g ai/ha, Preemergence): 0
Plant response rating, Groundsel ([7]; Postemergence, 8 g ai/ha): 0
Plant response rating, Groundsel ([7]; Postemergence, 16 g ai/ha): 0
Plant response rating, Groundsel ([7]; Postemergence, 31 g ai/ha): 0
Plant response rating, Groundsel ([7]; Postemergence, 62 g ai/ha): 0
Plant response rating, Johnsongrass ([8]; 16 g ai/ha, Preemergence): 50
Plant response rating, Johnsongrass ([8]; 31 g ai/ha, Preemergence): 90
Plant response rating, Johnsongrass ([8]; 62 g ai/ha, Preemergence): 90
Plant response rating, Johnsongrass ([8]; Postemergence, 8 g ai/ha): 10
Plant response rating, Johnsongrass ([8]; Postemergence, 16 g ai/ha): 80
Plant response rating, Johnsongrass ([8]; Postemergence, 31 g ai/ha): 98
Plant response rating, Johnsongrass ([8]; Postemergence, 62 g ai/ha): 100
Plant response rating, Chickweed [9]: 0
Plant response rating, Dallisgrass ([10]; 16 g ai/ha, Preemergence): 50
Plant response rating, Dallisgrass ([10]; 31 g ai/ha, Preemergence): 85
Plant response rating, Dallisgrass ([10]; 62 g ai/ha, Preemergence): 85
Plant response rating, Dallisgrass ([10]; Postemergence, 8 g ai/ha): 10
Plant response rating, Dallisgrass ([10]; Postemergence, 16 g ai/ha): 20
Plant response rating, Dallisgrass ([10]; Postemergence, 31 g ai/ha): 20
Plant response rating, Dallisgrass ([10]; Postemergence, 62 g ai/ha): 70
Plant response rating, Itchgrass ([11]; 16 g ai/ha, Preemergence): 80
Plant response rating, Itchgrass ([11]; 31 g ai/ha, Preemergence): 85
Plant response rating, Itchgrass ([11]; 62 g ai/ha, Preemergence): 90
Plant response rating, Itchgrass ([11]; Postemergence, 8 g ai/ha): 70
Plant response rating, Itchgrass ([11]; Postemergence, 16 g ai/ha): 80
Plant response rating, Itchgrass ([11]; Postemergence, 31 g ai/ha): 95
Plant response rating, Itchgrass ([11]; Postemergence, 62 g ai/ha): 95
Plant response rating, Goosegrass ([12]; 16 g ai/ha, Preemergence): 65
Plant response rating, Goosegrass ([12]; 31 g ai/ha, Preemergence): 95
Plant response rating, Goosegrass ([12]; 62 g ai/ha, Preemergence): 100
Plant response rating, Goosegrass ([12]; Postemergence, 8 g ai/ha): 0
Plant response rating, Goosegrass ([12]; Postemergence, 16 g ai/ha): 20
Plant response rating, Goosegrass ([12]; Postemergence, 31 g ai/ha): 80
Plant response rating, Goosegrass ([12]; Postemergence, 62 g ai/ha): 80
Plant response rating, Nutsedge, Purple ([13]; 16 g ai/ha, Preemergence): 0
Plant response rating, Nutsedge, Purple ([13]; 31 g ai/ha, Preemergence): 20
Plant response rating, Nutsedge, Purple ([13]; 62 g ai/ha, Preemergence): 35
Plant response rating, Nutsedge, Purple ([13]; Postemergence, 8 g ai/ha): 0
Plant response rating, Nutsedge, Purple ([13]; Postemergence, 16 g ai/ha): 0
Plant response rating, Nutsedge, Purple ([13]; Postemergence, 31 g ai/ha): 0
Plant response rating, Nutsedge, Purple ([13]; Postemergence, 62 g ai/ha): 0
Plant response rating, Guineagrass ([14]; 16 g ai/ha, Preemergence): 100
Plant response rating, Guineagrass ([14]; 31 g ai/ha, Preemergence): 100
Plant response rating, Guineagrass ([14]; 62 g ai/ha, Preemergence): 100
Plant response rating, Guineagrass ([14]; Postemergence, 8 g ai/ha): 95
Plant response rating, Guineagrass ([14]; Postemergence, 16 g ai/ha): 95
Plant response rating, Guineagrass ([14]; Postemergence, 31 g ai/ha): 100
Plant response rating, Guineagrass ([14]; Postemergence, 62 g ai/ha): 100
Plant response rating, Signalgrass ([15]; 16 g ai/ha, Preemergence): 65
Plant response rating, Signalgrass ([15]; 31 g ai/ha, Preemergence): 90
Plant response rating, Signalgrass ([15]; 62 g ai/ha, Preemergence): 100
Plant response rating, Signalgrass ([15]; Postemergence, 8 g ai/ha): 75
Plant response rating, Signalgrass ([15]; Postemergence, 16 g ai/ha): 85
Plant response rating, Signalgrass ([15]; Postemergence, 31 g ai/ha): 95
Plant response rating, Signalgrass ([15]; Postemergence, 62 g ai/ha): 100
